Data on nine molecules can be found in US10590120B2, “Pesticidal compositions and methods” (Dow AgroSciences LLC, priority 2016, dated 2020).

Holding throughout (type): in vivo
Test [1] has as its system Beet Armyworm (Spodoptera exigua, LAPHEG) ("BAW"). The test is described as follows: Insecticidal test for beet armyworm, 128-well diet tray assay. The following applies: 168 h, second instar larvae, 50 μg/cm^2 on artificial diet, 25° C., five to seven days, percent mortality averaged over eight wells. The method, then: Insecticidal Test for Beet Armyworm (Spodoptera exigua, LAPHEG) (“BAW”)
(§1) Bioassays on beet armyworm (BAW; Spodoptera exigua: Lepidoptera) are conducted using a 128-well diet tray assay. One to five second instar BAW larvae are placed in each well (3 mL) of the diet tray that had been previously filled with 1 mL of artificial diet to which 50 μg/cm^2 of the test compound (dissolved in 50 μL of 90:10 acetone-water mixture) had been applied (to each of eight wells) and then allowed to dry. Trays are covered with a clear self-adhesive cover, vented to allow gas exchange, and held at 25° C., 14:10 light-dark for five to seven days. Percent mortality is recorded for the larvae in each well; activity in the eight wells is then averaged.

The test system of test [2] is Cabbage Looper (Trichloplusia ni, TRIPNI) ("CL"). Description: Insecticidal test for cabbage looper, 128-well diet tray assay. The following applies: Trichoplusia ni, 168 h; second instar larvae, 50 μg/cm^2 on artificial diet, 25° C., five to seven days, percent mortality averaged over eight wells. The procedure:
Insecticidal Test for Cabbage Looper (Trichloplusia ni, TRIPNI) (“CL”)
as §1, with “cabbage looper (CL; Trichloplusia ni:” for “beet armyworm (BAW; Spodoptera exigua:”, “CL” for “BAW”

Test [3] deals with Yellow Fever Mosquito (Aedes aegypti, AEDSAE) ("YFM"). The test is described as follows: Insecticidal test for yellow fever mosquito, 96-well plate larval assay. The following applies: about 1 day-old larvae, 4000 ppm master solution diluted, room temperature, scored for mortality after 3 days. The method, then: Insecticidal Test for Yellow Fever Mosquito (Aedes aegypti, AEDSAE) (“YFM”)
Master plates containing 400 μg of a molecule dissolved in 100 μL of dimethyl sulfoxide (DMSO) (equivalent to a 4000 ppm solution) are used. A master plate of assembled molecules contains 15 μL per well. To this plate, 135 μL of a 90:10 water/acetone mixture is added to each well. A robot (Biomek® NXP Laboratory Automation Workstation) is programmed to dispense 15 μL aspirations from the master plate into an empty 96-well shallow plate (“daughter” plate). There are 6 reps (“daughter” plates) created per master. The created “daughter” plates are then immediately infested with YFM larvae.
The day before plates are to be treated, mosquito eggs are placed in Millipore water containing liver powder to begin hatching (4 g. into 400 mL). After the “daughter” plates are created using the robot, they are infested with 220 μL of the liver powder/larval mosquito mixture (about 1 day-old larvae). After plates are infested with mosquito larvae, a non-evaporative lid is used to cover the plate to reduce drying. Plates are held at room temperature for 3 days prior to grading. After 3 days, each well is observed and scored based on mortality.

In the case of `Cc1ccc(C(C)C)c(N2C(=O)CS/C2=N\C(=O)N/N=C/c2ccc(-c3ncn(-c4ccc(OC(F)(F)F)cc4)n3)cc2)c1` [Compound A1, N—((Z)-3-(2-isopropyl-5-methylphenyl)-4-oxothiazolidin-2-ylidene)-2-((E)-4-(1-(4-(trifluoromethoxy)phenyl)-1H-1,2,4-triazol-3-yl)benzylidene)hydrazine-1-carboxamide], the pest or weed control at 50 µg/cm2 in test [1] and in test [2] was 50 to 100% each time.

As to `CC(C)c1ccccc1N1C(=O)CS/C1=N\C(=O)N/N=C/c1ccc(-c2ncn(-c3ccc(OC(F)(F)F)cc3)n2)cc1` [Compound A2, N—((Z)-3-(2-Isopropylphenyl)-4-oxothiazolidin-2-ylidene)-2-((E)-4-(1-(4-(trifluoromethoxy)phenyl)-1H-1,2,4-triazol-3-yl)benzylidene)hydrazine-1-carboxamide], the pest or weed control at 50 µg/cm2 in test [1] and in test [2] was 50 to 100% each time. Besides, the “YFM % Control” value in test [3] is “A (80-100)”.

Regarding `CCc1cccc(C)c1N1C(=O)CS/C1=N\C(=O)N/N=C/c1ccc(-c2ncn(-c3ccc(OC(F)(F)F)cc3)n2)cc1` [Compound A3, N—((Z)-3-(2-Ethyl-6-methylphenyl)-4-oxothiazolidin-2-ylidene)-2-((E)-4-(1-(4-(trifluoromethoxy)phenyl)-1H-1,2,4-triazol-3-yl)benzylidene)hydrazine-1-carboxamide], the pest or weed control at 50 µg/cm2 in test [1] and in test [2] was 50 to 100% each time.

In the case of `Cc1ccc(Cl)c(N2C(=O)CS/C2=N\C(=O)N/N=C/c2ccc(-c3ncn(-c4ccc(OC(F)(F)F)cc4)n3)cc2)c1` [Compound A4, N—((Z)-3-(2-Chloro-5-methylphenyl)-4-oxothiazolidin-2-ylidene)-2-((E)-4-(1-(4-(trifluoromethoxy)phenyl)-1H-1,2,4-triazol-3-yl)benzylidene)hydrazine-1-carboxamide], the pest or weed control at 50 µg/cm2 in test [1] and in test [2] was 50 to 100% in each case. Also, in test [3], the “YFM % Control” value is on record as “A (80-100)”.

Consider `CCOc1ccc(C)cc1N1C(=O)CS/C1=N\C(=O)N/N=C/c1ccc(-c2ncn(-c3ccc(OC(F)(F)F)cc3)n2)cc1` [Compound A5, N—((Z)-3-(2-Ethoxy-5-methylphenyl)-4-oxothiazolidin-2-ylidene)-2-((E)-4-(1-(4-(trifluoromethoxy)phenyl)-1H-1,2,4-triazol-3-yl)benzylidene)hydrazine-1-carboxamide], for which the pest or weed control at 50 µg/cm2 in test [1] and in test [2] was 50 to 100% throughout.

Take `Cc1ccc(OCC(F)(F)F)c(N2C(=O)CS/C2=N\C(=O)N/N=C/c2ccc(-c3ncn(-c4ccc(OC(F)(F)F)cc4)n3)cc2)c1` [Compound A6, N—((Z)-3-(5-Methyl-2-(2,2,2-trifluoroethoxy)phenyl)-4-oxothiazolidin-2-ylidene)-2-((E)-4-(1-(4-(trifluoromethoxy)phenyl)-1H-1,2,4-triazol-3-yl)benzylidene)hydrazine-1-carboxamide]: the pest or weed control at 50 µg/cm2 in test [1] and in test [2] was 50 to 100% throughout.

In the case of `COc1ccc(N2C(=O)CS/C2=N\C(=O)N/N=C/c2ccc(-c3ncn(-c4ccc(OC(F)(F)F)cc4)n3)cc2)c(C)c1` [Compound A7, N—((Z)-3-(4-Methoxy-2-methylphenyl)-4-oxothiazolidin-2-ylidene)-2-((E)-4-(1-(4-(trifluoromethoxy)phenyl)-1H-1,2,4-triazol-3-yl)benzylidene)hydrazine-1-carboxamide], the pest or weed control at 50 µg/cm2 in test [1] and in test [2] was 50 to 100% in each case. The “YFM % Control” value in test [3] is given as “A (80-100)”.

For the molecule `CCOc1ccccc1N1C(=O)CS/C1=N\C(=O)N/N=C/c1ccc(-c2ncn(-c3ccc(OC(F)(F)F)cc3)n2)cc1` [Compound A8, N—((Z)-3-(2-Ethoxyphenyl)-4-oxothiazolidin-2-ylidene)-2-((E)-4-(1-(4-(trifluoromethoxy)phenyl)-1H-1,2,4-triazol-3-yl)benzylidene)hydrazine-1-carboxamide], the pest or weed control at 50 µg/cm2 in test [1] and in test [2] was 50 to 100% in each case.

Take `Cc1ccc(C(F)(F)F)c(N2C(=O)CS/C2=N\C(=O)N/N=C/c2ccc(-c3ncn(-c4ccc(OC(F)(F)F)cc4)n3)cc2)c1` [Compound A9, N—((Z)-3-(5-methyl-2-(trifluoromethyl)phenyl)-4-oxothiazolidin-2-ylidene)-2-((E)-4-(1-(4-(trifluoromethoxy)phenyl)-1H-1,2,4-triazol-3-yl)benzylidene)hydrazine-1-carboxamide]: the pest or weed control at 50 µg/cm2 in test [1] and in test [2] was 50 to 100% in each case.
